Patent US20200037600A1, “MESOIONIC IMIDAZOPYRIDINES AS INSECTICIDES” (Bayer Aktiengesellschaft, priority 2017, published 2020)
Where two headings read alike, the source gives them in different places.

Assays:
[1] = tested on: Diabrotica balteata; assay: Diabrotica balteata spray test; format: in vivo; conditions: application rate 160 μg/well, beetle larvae on germinated wheat grains, after 7 days; for pest or weed control at 160 µg/disc, 160 µg/well: Diabrotica balteata, 168 h, read-out: efficacy
Description: Diabrotica balteata—Spray Test
(§1) Solvent: 78 parts by weight of acetone • • 1.5 parts by weight of dimethylformamide
(§2) Emulsifier: alkylaryl polyglycol ether
(§3) To produce a suitable active compound formulation, 1 part by weight of active compound is dissolved with the specified parts by weight of solvent and made up to the desired concentration with water containing an emulsifier concentration of 1000 ppm. To produce further test concentrations, the formulation is diluted with emulsifier-containing water.
Pre-swollen wheat grains (Triticum aestivum) are incubated in a multiwell plate filled with agar and a little water for one day (5 seed grains per well). The germinated wheat grains are sprayed with an active compound preparation of the desired concentration. Subsequently, each cavity is infected with 10-20 beetle larvae of Diabrotica balteata.
After 7 days, the efficacy in % is determined. 100% means that all maize plants have grown as in the untreated, uninfected control; 0% means that no maize plant has grown.

[2] = tested on: Myzus persicae; assay: Myzus persicae oral test; format: in vivo; conditions: after 5 days; for pest or weed control at 4 ppm / pest or weed control at 20 ppm: Myzus persicae, po, 120 h, read-out: efficacy
Description: Solvent: 100 parts by weight of acetone
To produce a suitable active compound formulation, 1 part by weight of active compound is dissolved with the stated parts by weight of solvent and made up to the desired concentration with water.
50 μl of the active compound formulation are transferred into microtitre plates and made up to a final volume of 200 μl with 150 μl of IPL41 insect medium (33%+15% sugar). Subsequently, the plates are sealed with parafilm, which a mixed population of green peach aphids (Myzus persicae) within a second microtitre plate is able to puncture and imbibe the solution.
(§4) After 5 days, the efficacy in % is determined. 100% means that all the aphids have been killed; 0% means that no aphids have been killed.

[3] = log P by HPLC (EEC directive 79/831 Annex V.A8); format: physicochemical
Description: The log P values reported in the tables and preparation examples above were determined in accordance with EEC directive 79/831 Annex V.A8 by HPLC (High Performance Liquid Chromatography) using a reversed-phase column (C18). Temperature 43° C. The calibration is effected with unbranched alkan-2-ones (having 3 to 16 carbon atoms), for which the log P values are known.

[4] = tested on: Myzus persicae; assay: Myzus persicae spray test; format: in vivo; conditions: application rate 500 g/ha, Chinese cabbage leaf discs, after 5 days; for pest or weed control at 500 g/ha: Myzus persicae, foliar, 120 h, read-out: efficacy
Description: Myzus persicae—Spray Test
as §1, §2, §3
Discs of Chinese cabbage leaves (Brassica pekinensis) infested by all stages of the green peach aphid (Myzus persicae) are sprayed with an active compound formulation of the desired concentration.
as §4

[5] = HPLC, reversed-phase column (C18), 43° C, acidic (HCOOH), read-out: log P (HCOOH)

Structure (SMILES): CNC(=O)c1c([O-])[n+]2ccccc2n1Cc1cnc(Cl)s1 [Example I-017]
- efficacy [1]: 100%
- efficacy ([2]; application rate 4 ppm): 100%

Structure (SMILES): O=C(NCC1CC1)c1c([O-])[n+]2ccccc2n1Cc1cnc(Cl)s1 [Example I-016]
- efficacy [1]: 100%
- efficacy ([2]; application rate 4 ppm): 90%

Structure (SMILES): O=C(COCc1ccnc(Cl)c1)c1c([O-])[n+]2ccccc2n1Cc1ccc(Cl)nc1 [Example I-084, 2-[2-[(2-chloro-4-pyridyl)methoxy]acetyl]-1-[(6-chloro-3-pyridyl)methyl]imidazo[1,2-a]pyridin-4-ium-3-olate]
- chromatographic logP [3]: 1.73

Structure (SMILES): C#CCOC(=O)C(=O)c1c([O-])[n+]2ccccc2n1Cc1cnc(Cl)s1 [Example I-055]
- efficacy ([2]; application rate 4 ppm): 100%
- efficacy [4]: 90%

Structure (SMILES): CCOC(=O)C(=O)c1c([O-])[n+]2ccccc2n1Cc1cnc(Cl)s1 [Example I-029, 1-[(2-chlorothiazol-5-yl)methyl]-2-(2-ethoxy-2-oxoacetyl)imidazo[1,2-a]pyridin-4-ium-3-olate]
- pest or weed control at 4 ppm ([2]; application rate 4 ppm): 100%
- chromatographic logP [3]: 1.55

Structure (SMILES): O=C(c1c([O-])[n+]2ccccc2n1Cc1cnc(Cl)s1)C1CC1 [Example I-031]
- efficacy [1]: 100%
- efficacy ([2]; application rate 4 ppm): 90%

Structure (SMILES): O=C(c1c([O-])[n+]2ccccc2n1Cc1cncnc1)C(F)(F)F [Example I-012]
- efficacy ([2]; application rate 4 ppm): 100%
- efficacy ([2]; application rate 20 ppm): 100%

Structure (SMILES): Oc1cn(Cc2cnc(Cl)s2)c2c(C3CC3)ccc[n+]12 [VII-1-003, 1-[(2-chlorothiazol-5-yl)methyl]-8-cyclopropylimidazo[1,2-a]pyridin-4-ium-3-ol 2,2,2-trifluoroacetate]
- chromatographic logP [3, 5]: 1.27

Structure (SMILES): CC(C)(C)OC(=O)C(=O)c1c([O-])[n+]2ccccc2n1Cc1cnc(Cl)s1 [Example I-066]
- efficacy ([2]; application rate 4 ppm): 90%
- efficacy [4]: 90%

Structure (SMILES): CC(C)=CCOC(=O)C(=O)c1c([O-])[n+]2ccccc2n1Cc1cnc(Cl)s1 [Example I-057]
- efficacy ([2]; application rate 4 ppm): 100%
- efficacy [4]: 90%

Structure (SMILES): Oc1cn(Cc2cnc(Cl)s2)c2c(I)ccc[n+]12 [VII-1-002, 1-[(2-chlorothiazol-5-yl)methyl]-8-iodoimidazo[1,2-a]pyridin-4-ium-3-ol 2,2,2-trifluoroacetate]
- chromatographic logP [3, 5]: 1.22

Structure (SMILES): Cc1ccc[n+]2c([O-])c(C(=O)C(=O)OCC3CC3)n(Cc3cnc(Cl)s3)c12 [Example I-047]
- pest or weed control at 160 µg/disc, 160 µg/well [1]: 100%
- pest or weed control at 4 ppm ([2]; application rate 4 ppm): 100%
- pest or weed control at 500 g/ha [4]: 90%

Structure (SMILES): CO/N=C/C(=O)c1c([O-])[n+]2ccccc2n1Cc1cnc(Cl)s1 [Example I-059, 1-[(2-chlorothiazol-5-yl)methyl]-2-[(2E)-2-methoxyiminoacetyl]imidazo[1,2-a]pyridin-4-ium-3-olate]
- pest or weed control at 160 µg/disc, 160 µg/well [1]: 100%
- pest or weed control at 4 ppm ([2]; application rate 4 ppm): 100%
- pest or weed control at 500 g/ha [4]: 70%
- chromatographic logP [3]: 1.45

Structure (SMILES): O=C(OCCc1ccccc1)C(=O)c1c([O-])[n+]2ccccc2n1Cc1cnc(Cl)s1 [Example I-052]
- efficacy ([2]; application rate 4 ppm): 100%

Structure (SMILES): O=C(c1ccc(Cl)cc1)c1c([O-])[n+]2ccccc2n1Cc1cnc(Cl)s1 [Example I-030]
- efficacy [1]: 100%
- efficacy ([2]; application rate 4 ppm): 100%

Structure (SMILES): O=C(OCCC(F)(F)F)C(=O)c1c([O-])[n+]2ccccc2n1Cc1cnc(Cl)s1 [Example I-054]
- efficacy ([2]; application rate 4 ppm): 100%
- efficacy [4]: 70%

Structure (SMILES): CCC(=O)c1c([O-])[n+]2ccccc2n1Cc1cnc(Cl)s1 [Example I-014]
- efficacy [1]: 80%
- efficacy ([2]; application rate 4 ppm): 100%

Structure (SMILES): COCC(=O)c1c([O-])[n+]2ccccc2n1Cc1ccc(Cl)nc1 [Example I-009]
- efficacy ([2]; application rate 4 ppm): 100%
- efficacy ([2]; application rate 20 ppm): 100%

Structure (SMILES): O=C(OCc1ccccc1)C(=O)c1c([O-])[n+]2ccccc2n1Cc1cnc(Cl)s1 [Example I-053]
- efficacy ([2]; application rate 4 ppm): 100%

Structure (SMILES): O=C(CCl)c1c([O-])[n+]2ccccc2n1Cc1cnc(Cl)s1 [Example I-005, 2-(2-Chloroacetyl)-1-[(2-chlorothiazol-5-yl)methyl]imidazo[1,2-a]pyridin-4-ium-3-olate]
- pest or weed control at 160 µg/disc, 160 µg/well [1]: 80%
- pest or weed control at 4 ppm ([2]; application rate 4 ppm): 100%
- pest or weed control at 20 ppm ([2]; application rate 20 ppm): 100%
- chromatographic logP [3]: 1.58

Structure (SMILES): O=C(c1c([O-])[n+]2cccc(I)c2n1Cc1cnc(Cl)s1)C(F)(F)F [Example I-112, 1-[(2-chlorothiazol-5-yl)methyl]-8-iodo-2-(2,2,2-trifluoroacetyl)imidazo[1,2-a]pyridin-4-ium-3-olate]
- chromatographic logP [3]: 2.37

Structure (SMILES): CC(C)(C)OC(=O)CN(Cc1cnc(Cl)s1)c1ncccc1I [IV-2-002]
- chromatographic logP [3]: 4.62

Structure (SMILES): CC(C)(C)OC(=O)CN(Cc1cnc(Cl)s1)c1ccccn1 [tert-Butyl 2-[(2-chlorothiazol-5-yl)methyl-(2-pyridyl)amino]acetate]
- chromatographic logP [3]: 3.59

Structure (SMILES): O=C(OCc1cccc(Cl)n1)C(=O)c1c([O-])[n+]2ccccc2n1Cc1cnc(Cl)s1 [Example I-042]
- efficacy [4]: 100%

Structure (SMILES): O=C(c1c([O-])[n+]2ccccc2n1Cc1ccc(Cl)nc1)C(F)(F)F [Example I-002]
- efficacy [1]: 100%
- efficacy ([2]; application rate 4 ppm): 100%
- efficacy ([2]; application rate 20 ppm): 100%
- efficacy [4]: 100%

Structure (SMILES): O=C(CBr)c1c([O-])[n+]2ccccc2n1Cc1cnc(Cl)s1 [Example I-020]
- efficacy ([2]; application rate 4 ppm): 100%
- efficacy [4]: 90%

Structure (SMILES): O=C(OCC(F)F)C(=O)c1c([O-])[n+]2ccccc2n1Cc1cnc(Cl)s1 [Example I-051]
- efficacy ([2]; application rate 4 ppm): 100%
- efficacy [4]: 90%

Structure (SMILES): O=C(c1c([O-])[n+]2cccc(C3CC3)c2n1Cc1cnc(Cl)s1)C(F)(F)F [Example I-078, 1-[(2-chlorothiazol-5-yl)methyl]-8-cyclopropyl-2-(2,2,2-trifluoroacetyl)imidazo[1,2-a]pyridin-4-ium-3-olate]
- chromatographic logP [3, 5]: 2.48

Structure (SMILES): O=C(OCC(F)(F)F)C(=O)c1c([O-])[n+]2ccccc2n1Cc1cnc(Cl)s1 [Example I-036]
- efficacy ([2]; application rate 4 ppm): 100%
- efficacy [4]: 90%

Structure (SMILES): O=C(Cn1cc(Cl)cn1)c1c([O-])[n+]2ccccc2n1Cc1ccc(Cl)nc1 [Example I-006]
- efficacy ([2]; application rate 20 ppm): 100%

Structure (SMILES): COC(=O)C(=O)c1c([O-])[n+]2ccccc2n1Cc1cnc(Cl)s1 [Example I-032]
- efficacy ([2]; application rate 4 ppm): 100%
- efficacy [4]: 100%

Structure (SMILES): O=C(Cn1cc(Cl)cn1)c1c([O-])[n+]2ccccc2n1Cc1cnc(Cl)s1 [Example I-004, 2-[2-(4-Chloropyrazol-1-yl)acetyl]-1-[(2-chlorothiazol-5-yl)methyl]imidazo[1,2-a]pyridin-4-ium-3-olate]
- pest or weed control at 20 ppm ([2]; application rate 20 ppm): 90%
- chromatographic logP [3, 5]: 1.83

Structure (SMILES): CC(C)(C)OC(=O)CN(Cc1cnc(Cl)s1)c1ncccc1C1CC1 [IV-2-003]
- chromatographic logP [3, 5]: 4.73

Structure (SMILES): CC(=O)c1c([O-])[n+]2ccccc2n1Cc1ccc(Cl)nc1 [Example I-003]
- efficacy ([2]; application rate 4 ppm): 90%
- efficacy ([2]; application rate 20 ppm): 100%

Structure (SMILES): O=C(CCl)c1c([O-])[n+]2ccccc2n1Cc1ccc(Cl)nc1 [Example I-001]
- efficacy ([2]; application rate 20 ppm): 100%

Structure (SMILES): O=C(O)CN(Cc1cnc(Cl)s1)c1ccccn1 [Example V-1-001, 2-[(2-Chlorothiazol-5-yl)methyl-(2-pyridyl)amino]acetic Acid]
- chromatographic logP [3]: 1.21

Structure (SMILES): O=C(c1c([O-])[n+]2cccc(-c3ccccc3)c2n1Cc1cnc(Cl)s1)C(F)(F)F [Example I-109, 1-[(2-chlorothiazol-5-yl)methyl]-8-phenyl-2-(2,2,2-trifluoroacetyl)imidazo[1,2-a]pyridin-4-ium-3-olate]
- chromatographic logP [3, 5]: 2.99

Structure (SMILES): O=C(NCc1ccccc1)c1c([O-])[n+]2ccccc2n1Cc1cnc(Cl)s1 [Example I-022]
- efficacy [1]: 100%

Structure (SMILES): Cc1ccc[n+]2c(O)cn(Cc3cnc(Cl)s3)c12 [VII-1-001, 1-[(2-Chlorothiazol-5-yl)methyl]-8-methylimidazo[1,2-a]pyridin-4-ium-3-ol; 2,2,2-trifluoroacetate]
- chromatographic logP [3, 5]: 0.75

Structure (SMILES): O=C(c1cccc(C(F)(F)F)c1)c1c([O-])[n+]2ccccc2n1Cc1cncnc1 [Example I-049]
- efficacy ([2]; application rate 4 ppm): 100%
- efficacy [4]: 90%

Structure (SMILES): Cc1cccnc1N(CC(=O)OC(C)(C)C)Cc1cnc(Cl)s1 [tert-Butyl 2-[(2-chlorothiazol-5-yl)methyl-(3-methyl-2-pyridyl)amino]acetate]
- chromatographic logP [3]: 4.13
